Assay results: ChEMBL document CHEMBL3871268, “Chalcogen containing heterocyclic scaffolds: New hybrids with antitumoral activity” (Eur J Med Chem, 2016)

Assays:
[1] = Cytotoxicity against human MCF7 cells assessed as reduction in cell viability measured after 72 hrs by MTT assay; type: functional; details: MCF7, 72 h
[2] = Cytotoxicity against human PC3 cells assessed as reduction in cell viability measured after 72 hrs by MTT assay; type: functional; details: PC-3, 72 h
[3] = Cytotoxicity against human 184B5 cells assessed as reduction in cell viability measured after 72 hrs by MTT assay; type: toxicity, cell-based; details: for GI50 at 72 h: 184B5 cells; for LC50 / TGI: 184b5, 72 h
MCF7 = assay: Selectivity index, ratio of GI50 for human 184B5 cells to GI50 for human MCF7 cells; type: functional
[4] = Cell cycle arrest in human MCF7 cells assessed as M1 quadrant cells at 18 uM measured after 48 hrs by propidium iodide staining-based flow cytometry (reference value: 98.1%); type: functional
[5] = Cell cycle arrest in human MCF7 cells assessed as sub-diploid cells at 18 uM measured after 48 hrs by propidium iodide staining-based flow cytometry (reference value: 1.9%); type: functional
[6] = Cell cycle arrest in human MCF7 cells assessed as M1 quadrant cells at 18 uM pretreated with pan-caspase inhibitor Z-VAD-FMK for 1 hr followed by compound addition measured after 48 hrs by propidium iodide staining-based flow cytometry assay (reference value: 98.1%); type: functional; set-up: scale not given: the % may be the effect or the level left
[7] = Cell cycle arrest in human MCF7 cells assessed as sub-diploid cells at 18 uM pretreated with pan-caspase inhibitor Z-VAD-FMK for 1 hr followed by compound addition measured after 48 hrs by propidium iodide staining-based flow cytometry assay (reference value: 1.9%); type: functional; set-up: scale not given: the % may be the effect or the level left
[8] = Cell cycle arrest in human MCF7 cells assessed as M1 quadrant cells at 18 uM pretreated with autophagy inhibitor wortmannin for 1 hr followed by compound addition measured after 48 hrs by propidium iodide staining-based flow cytometry assay (reference value: 98.1%); type: functional; set-up: scale not given: the % may be the effect or the level left
[9] = Cell cycle arrest in human MCF7 cells assessed as sub-diploid cells at 18 uM pretreated with autophagy inhibitor wortmannin for 1 hr followed by compound addition measured after 48 hrs by propidium iodide staining-based flow cytometry assay (reference value: 1.9%); type: functional; set-up: scale not given: the % may be the effect or the level left
[10] = Cell cycle analysis in human MCF7 cells assessed as accumulation at SubG1 phase at 1 uM measured after 24 hrs by propidium iodide staining-based flow cytometry (reference value: 2.6%); type: functional
[11] = Cell cycle analysis in human MCF7 cells assessed as accumulation at G0/G1 phase at 1 uM measured after 24 hrs by propidium iodide staining-based flow cytometry (reference value: 73.6%); type: functional
[12] = Cell cycle analysis in human MCF7 cells assessed as accumulation at S phase at 1 uM measured after 24 hrs by propidium iodide staining-based flow cytometry (reference value: 15.3%); type: functional
[13] = Cell cycle analysis in human MCF7 cells assessed as accumulation at G2/M phase at 1 uM measured after 24 hrs by propidium iodide staining-based flow cytometry (reference value: 8.9%); type: functional
[14] = Cell cycle analysis in human MCF7 cells assessed as accumulation at SubG1 phase at 5 uM measured after 24 hrs by propidium iodide staining-based flow cytometry (reference value: 2.6%); type: functional
[15] = Cell cycle analysis in human MCF7 cells assessed as accumulation at G0/G1 phase at 5 uM measured after 24 hrs by propidium iodide staining-based flow cytometry (reference value: 73.6%); type: functional
[16] = Cell cycle analysis in human MCF7 cells assessed as accumulation at S phase at 5 uM measured after 24 hrs by propidium iodide staining-based flow cytometry (reference value: 15.3%); type: functional
[17] = Cell cycle analysis in human MCF7 cells assessed as accumulation at G2/M phase at 5 uM measured after 24 hrs by propidium iodide staining-based flow cytometry (reference value: 8.9%); type: functional
[18] = Cell cycle analysis in human MCF7 cells assessed as accumulation at SubG1 phase at 10 uM measured after 24 hrs by propidium iodide staining-based flow cytometry (reference value: 2.6%); type: functional
[19] = Cell cycle analysis in human MCF7 cells assessed as accumulation at G0/G1 phase at 10 uM measured after 24 hrs by propidium iodide staining-based flow cytometry (reference value: 73.6%); type: functional
[20] = Cell cycle analysis in human MCF7 cells assessed as accumulation at S phase at 10 uM measured after 24 hrs by propidium iodide staining-based flow cytometry (reference value: 15.3%); type: functional
[21] = Cell cycle analysis in human MCF7 cells assessed as accumulation at G2/M phase at 10 uM measured after 24 hrs by propidium iodide staining-based flow cytometry (reference value: 8.9%); type: functional
[22] = Cell cycle analysis in human MCF7 cells assessed as accumulation at SubG1 phase at 18 uM measured after 24 hrs by propidium iodide staining-based flow cytometry (reference value: 2.6%); type: functional
[23] = Cell cycle analysis in human MCF7 cells assessed as accumulation at G0/G1 phase at 18 uM measured after 24 hrs by propidium iodide staining-based flow cytometry (reference value: 73.6%); type: functional
[24] = Cell cycle analysis in human MCF7 cells assessed as accumulation at S phase at 18 uM measured after 24 hrs by propidium iodide staining-based flow cytometry (reference value: 15.3%); type: functional
[25] = Cell cycle analysis in human MCF7 cells assessed as accumulation at G2/M phase at 18 uM measured after 24 hrs by propidium iodide staining-based flow cytometry (reference value: 8.9%); type: functional
[26] = Cell cycle analysis in human MCF7 cells assessed as accumulation at SubG1 phase at 25 uM measured after 24 hrs by propidium iodide staining-based flow cytometry (reference value: 2.6%); type: functional
[27] = Cell cycle analysis in human MCF7 cells assessed as accumulation at G0/G1 phase at 25 uM measured after 24 hrs by propidium iodide staining-based flow cytometry (reference value: 73.6%); type: functional
[28] = Cell cycle analysis in human MCF7 cells assessed as accumulation at S phase at 25 uM measured after 24 hrs by propidium iodide staining-based flow cytometry (reference value: 15.3%); type: functional
[29] = Cell cycle analysis in human MCF7 cells assessed as accumulation at G2/M phase at 25 uM measured after 24 hrs by propidium iodide staining-based flow cytometry (reference value: 8.9%); type: functional
[30] = Cell cycle arrest in human MCF7 cells assessed as increase in subdiploid cells at 18 uM after 48 hrs by TUNEL based flow cytometry assay; type: functional
[31] = Cell cycle arrest in human MCF7 cells assessed as M1 quadrant cells at 50 uM measured after 48 hrs by propidium iodide staining-based flow cytometry (reference value: 98.1%); type: functional
[32] = Cell cycle arrest in human MCF7 cells assessed as sub-diploid cells at 50 uM measured after 48 hrs by propidium iodide staining-based flow cytometry (reference value: 1.9%); type: functional
[33] = Cell cycle arrest in human MCF7 cells assessed as M1 quadrant cells at 50 uM pretreated with pan-caspase inhibitor Z-VAD-FMK for 1 hr followed by compound addition measured after 48 hrs by propidium iodide staining-based flow cytometry assay (reference value: 98.1%); type: functional; set-up: scale not given: the % may be the effect or the level left
[34] = Cell cycle arrest in human MCF7 cells assessed as sub-diploid cells at 50 uM pretreated with pan-caspase inhibitor Z-VAD-FMK for 1 hr followed by compound addition measured after 48 hrs by propidium iodide staining-based flow cytometry assay (reference value: 1.9%); type: functional; set-up: scale not given: the % may be the effect or the level left
[35] = Cell cycle arrest in human MCF7 cells assessed as M1 quadrant cells at 50 uM pretreated with autophagy inhibitor wortmannin for 1 hr followed by compound addition measured after 48 hrs by propidium iodide staining-based flow cytometry assay (reference value: 98.1%); type: functional; set-up: scale not given: the % may be the effect or the level left
[36] = Cell cycle arrest in human MCF7 cells assessed as sub-diploid cells at 50 uM pretreated with autophagy inhibitor wortmannin for 1 hr followed by compound addition measured after 48 hrs by propidium iodide staining-based flow cytometry assay (reference value: 1.9%); type: functional; set-up: scale not given: the % may be the effect or the level left
[37] = Cell cycle analysis in human MCF7 cells assessed as accumulation at SubG1 phase at 50 uM measured after 4 hrs by propidium iodide staining-based flow cytometry (reference value: 5.6%); type: functional
[38] = Cell cycle analysis in human MCF7 cells assessed as accumulation at G0/G1 phase at 50 uM measured after 4 hrs by propidium iodide staining-based flow cytometry (reference value: 72.1%); type: functional
[39] = Cell cycle analysis in human MCF7 cells assessed as accumulation at S phase at 50 uM measured after 4 hrs by propidium iodide staining-based flow cytometry (reference value: 13.2%); type: functional
[40] = Cell cycle analysis in human MCF7 cells assessed as accumulation at G2/M phase at 50 uM measured after 4 hrs by propidium iodide staining-based flow cytometry (reference value: 8.5%); type: functional
[41] = Cell cycle analysis in human MCF7 cells assessed as accumulation at SubG1 phase at 50 uM measured after 8 hrs by propidium iodide staining-based flow cytometry (reference value: 5.6%); type: functional
[42] = Cell cycle analysis in human MCF7 cells assessed as accumulation at G0/G1 phase at 50 uM measured after 8 hrs by propidium iodide staining-based flow cytometry (reference value: 72.1%); type: functional
[43] = Cell cycle analysis in human MCF7 cells assessed as accumulation at S phase at 50 uM measured after 8 hrs by propidium iodide staining-based flow cytometry (reference value: 13.2%); type: functional
[44] = Cell cycle analysis in human MCF7 cells assessed as accumulation at G2/M phase at 50 uM measured after 8 hrs by propidium iodide staining-based flow cytometry (reference value: 8.5%); type: functional
[45] = Cell cycle analysis in human MCF7 cells assessed as accumulation at SubG1 phase at 50 uM measured after 16 hrs by propidium iodide staining-based flow cytometry (reference value: 5.6%); type: functional
[46] = Cell cycle analysis in human MCF7 cells assessed as accumulation at G0/G1 phase at 50 uM measured after 16 hrs by propidium iodide staining-based flow cytometry (reference value: 72.1%); type: functional
[47] = Cell cycle analysis in human MCF7 cells assessed as accumulation at S phase at 50 uM measured after 16 hrs by propidium iodide staining-based flow cytometry (reference value: 13.2%); type: functional
[48] = Cell cycle analysis in human MCF7 cells assessed as accumulation at G2/M phase at 50 uM measured after 16 hrs by propidium iodide staining-based flow cytometry (reference value: 8.5%); type: functional
[49] = Cell cycle analysis in human MCF7 cells assessed as accumulation at SubG1 phase at 50 uM measured after 24 hrs by propidium iodide staining-based flow cytometry (reference value: 5.6%); type: functional
[50] = Cell cycle analysis in human MCF7 cells assessed as accumulation at G0/G1 phase at 50 uM measured after 24 hrs by propidium iodide staining-based flow cytometry (reference value: 72.1%); type: functional
[51] = Cell cycle analysis in human MCF7 cells assessed as accumulation at S phase at 50 uM measured after 24 hrs by propidium iodide staining-based flow cytometry (reference value: 13.2%); type: functional
[52] = Cell cycle analysis in human MCF7 cells assessed as accumulation at G2/M phase at 50 uM measured after 24 hrs by propidium iodide staining-based flow cytometry (reference value: 8.5%); type: functional
[53] = Cell cycle analysis in human MCF7 cells assessed as accumulation at SubG1 phase at 50 uM measured after 48 hrs by propidium iodide staining-based flow cytometry (reference value: 5.6%); type: functional
[54] = Cell cycle analysis in human MCF7 cells assessed as accumulation at G0/G1 phase at 50 uM measured after 48 hrs by propidium iodide staining-based flow cytometry (reference value: 72.1%); type: functional
[55] = Cell cycle analysis in human MCF7 cells assessed as accumulation at S phase at 50 uM measured after 48 hrs by propidium iodide staining-based flow cytometry (reference value: 13.2%); type: functional
[56] = Cell cycle analysis in human MCF7 cells assessed as accumulation at G2/M phase at 50 uM measured after 48 hrs by propidium iodide staining-based flow cytometry (reference value: 8.5%); type: functional
[57] = Cell cycle analysis in human MCF7 cells assessed as accumulation at SubG1 phase at 50 uM by propidium iodide staining-based flow cytometry; type: functional; details: TDE = time-dependent effect

## Cc1noc(C)c1CSC#N
[1]
  GI50: 4.8 µM
  LC50: 84.9 µM
  TGI: 44.6 µM
[2]
  GI50: 8 µM
  LC50 (concentration lethal to 50% of cells): 21.9 µM
  TGI: 13.8 µM
[3]
  GI50 at 72 h: 46.2 µM
  LC50: 99.5 µM
  TGI: 74.2 µM
MCF7
  RatioGI50: 9.6
[4]
  Activity: 46%
[5]
  Activity: 53.7%
[6]
  Activity: 80.9%
[7]
  Activity: 19.1%
[8]
  Activity: 49.6%
[9]
  Activity: 50.4%
[10]
  Activity: 2%
[11]
  Activity: 67.6%
[12]
  Activity: 22.2%
[13]
  Activity: 8.9%
[14]
  Activity: 3.3%
[15]
  Activity: 68.1%
[16]
  Activity: 14.9%
[17]
  Activity: 13.2%
[18]
  Activity: 3.4%
[19]
  Activity: 33.8%
[20]
  Activity: 11.6%
[21]
  Activity: 51.8%
[22]
  Activity: 5.7%
[23]
  Activity: 18.4%
[24]
  Activity: 9.9%
[25]
  Activity: 66.1%
[26]
  Activity: 4.4%
[27]
  Activity: 54.6%
[28]
  Activity: 16.3%
[29]
  Activity: 25.8%
[30]
  Activity: > 60%

## N#C[Se]Cc1ccc(-n2cccc2)cc1
[1]
  GI50: 2.4 µM
  LC50: > 100 µM
  TGI: > 100 µM
[2]
  GI50: 59.9 µM
  LC50 (concentration lethal to 50% of cells): > 100 µM
  TGI: > 100 µM
[3]
  GI50 at 72 h: > 100 µM
  LC50: > 100 µM
  TGI: > 100 µM
MCF7
  RatioGI50: >41.8
[31]
  Activity: 67.8%
[32]
  Activity: 32.2%
[33]
  Activity: 81.7%
[34]
  Activity: 18.2%
[35]
  Activity: 69.2%
[36]
  Activity: 30.8%
[37]
  Activity: 2.2%
[38]
  Activity: 59.6%
[39]
  Activity: 19.3%
[40]
  Activity: 18.7%
[41]
  Activity: 2.9%
[42]
  Activity: 61.4%
[43]
  Activity: 17.8%
[44]
  Activity: 18.4%
[45]
  Activity: 9.4%
[46]
  Activity: 53.7%
[47]
  Activity: 17.6%
[48]
  Activity: 17.2%
[49]
  Activity: 13.1%
[50]
  Activity: 55.7%
[51]
  Activity: 17.2%
[52]
  Activity: 14%
[53]
  Activity: 25.2%
[54]
  Activity: 53.6%
[55]
  Activity: 9.1%
[56]
  Activity: 10.3%
[57]
  Activity: Tde
